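These data come from cells grown in 96-well plates and exposed to compound for 48 hours at five concentrations. At the GI50, growth is halved. TGI marks complete inhibition of growth.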
What was measured:
Experiment in all cases: NCI-60 cell line screen, 48 h
[1] = tested on: SNB-75 CNS
[2] = tested on: OVCAR-4 ovarian
[3] = tested on: NCI-H23 lung
[4] = tested on: MCF7 breast
[5] = tested on: UACC-257 melanoma
[6] = tested on: MOLT-4 leukemia
[7] = tested on: NCI-H226 lung
[8] = tested on: OVCAR-8 ovarian
[9] = tested on: HCT-116 colon
[10] = tested on: OVCAR-5 ovarian
[11] = tested on: UO-31 renal
[12] = tested on: MALME-3M melanoma
[13] = tested on: U251 CNS
[14] = tested on: M14 melanoma
[15] = tested on: A498 renal
[16] = tested on: NCI/ADR-RES ovarian
[17] = tested on: EKVX NSCLC
[18] = tested on: PC-3 prostate
[19] = tested on: RXF 393 renal
[20] = tested on: 786-0 renal
[21] = tested on: KM12 colon
[22] = tested on: SW-620 colon
[23] = tested on: SF-539 CNS
[24] = tested on: HT29 colon
[25] = tested on: A549 NSCLC
[26] = tested on: SNB-19 CNS
[27] = tested on: SK-MEL-5 melanoma
[28] = tested on: MDA-MB-231 breast
[29] = tested on: SR leukemia
[30] = tested on: NCI-H460 lung
[31] = tested on: T-47D breast
[32] = tested on: HCT-15 colon
[33] = tested on: BT-549 breast
[34] = tested on: UACC-62 melanoma
[35] = tested on: HL-60(TB) leukemia
[36] = tested on: SK-MEL-28 melanoma
[37] = tested on: CAKI-1 renal
[38] = tested on: OVCAR-3 ovarian
[39] = tested on: HOP-62 NSCLC
[40] = tested on: SN12C renal
[41] = tested on: SK-MEL-2 melanoma
[42] = tested on: HCC-2998 colon
[43] = tested on: TK-10 renal
[44] = tested on: DU-145 prostate
[45] = tested on: HS 578T breast
[46] = tested on: LOX IMVI melanoma
[47] = tested on: COLO 205 colon
[48] = tested on: RPMI-8226 leukemia
[49] = tested on: MDA-MB-435
[50] = tested on: K-562 leukemia
[51] = tested on: SF-295 CNS
[52] = tested on: ACHN renal
[53] = tested on: CCRF-CEM leukemia
[54] = tested on: SF-268 CNS
[55] = tested on: SK-OV-3 ovarian
[56] = tested on: HOP-92 NSCLC
[57] = tested on: IGROV1 ovarian
[58] = tested on: NCI-H522 lung

Which results are given for `CN1CCN(C(=O)c2ccc(NC(=O)Nc3ccc(N(C)c4ccnc(Nc5ccc(CS(C)(=O)=O)cc5)n4)cc3)cc2)CC1`?
GI50 [1]: 12.7 µM; TGI [1]: > 25 µM; GI50 [2]: 8.15 µM; TGI [2]: > 25 µM; GI50 [3]: 19 µM; TGI [3]: > 25 µM; GI50 [4]: 7.41 µM; TGI [4]: > 25 µM; GI50 [5]: > 25 µM; TGI [5]: > 25 µM; GI50 [6]: 9.25 µM; TGI [6]: > 25 µM; GI50 [7]: 6.79 µM; TGI [7]: > 25 µM; GI50 [8]: 7.22 µM; TGI [8]: > 24 µM; GI50 [9]: 10.1 µM; TGI [9]: > 25 µM; GI50 [10]: > 25 µM; TGI [10]: > 25 µM; GI50 [11]: > 25 µM; TGI [11]: > 25 µM; GI50 [12]: > 15 µM; TGI [12]: > 25 µM; GI50 [13]: 6.26 µM; TGI [13]: > 25 µM; GI50 [14]: > 23.2 µM; TGI [14]: > 25 µM; GI50 [15]: > 25 µM; TGI [15]: > 25 µM; GI50 [16]: > 25 µM; TGI [16]: > 25 µM; GI50 [17]: > 25 µM; TGI [17]: > 25 µM; GI50 [18]: 9.09 µM; TGI [18]: > 25 µM; GI50 [19]: 24.2 µM; TGI [19]: > 25 µM; GI50 [20]: > 25 µM; TGI [20]: > 25 µM; GI50 [21]: 7.33 µM; TGI [21]: > 25 µM; GI50 [22]: 11 µM; TGI [22]: > 25 µM; GI50 [23]: 11.2 µM; TGI [23]: > 25 µM; GI50 [24]: 11.4 µM; TGI [24]: > 25 µM; GI50 [25]: > 23.3 µM; TGI [25]: > 25 µM; GI50 [26]: 12.7 µM; TGI [26]: > 25 µM; GI50 [27]: 12.4 µM; TGI [27]: > 25 µM; GI50 [28]: > 23.8 µM; TGI [28]: > 25 µM; GI50 [29]: > 12.7 µM; TGI [29]: > 25 µM; GI50 [30]: 11.8 µM; TGI [30]: > 25 µM; GI50 [31]: 4.68 µM; TGI [31]: 19.7 µM; GI50 [32]: > 25 µM; TGI [32]: > 25 µM; GI50 [33]: 9.05 µM; TGI [33]: > 25 µM; GI50 [34]: 9.99 µM; TGI [34]: > 25 µM; GI50 [35]: > 19.4 µM; TGI [35]: > 25 µM; GI50 [36]: > 25 µM; TGI [36]: > 25 µM; GI50 [37]: > 25 µM; TGI [37]: > 25 µM; GI50 [38]: 7.44 µM; TGI [38]: > 19.4 µM; GI50 [39]: 7.61 µM; TGI [39]: > 25 µM; GI50 [40]: 9.42 µM; TGI [40]: > 25 µM; GI50 [41]: > 12.7 µM; TGI [41]: > 25 µM; GI50 [42]: > 25 µM; TGI [42]: > 25 µM; GI50 [43]: > 25 µM; TGI [43]: > 25 µM; GI50 [44]: 8.78 µM; TGI [44]: > 25 µM; GI50 [45]: 4.62 µM; TGI [45]: > 22.1 µM; GI50 [46]: 10 µM; TGI [46]: > 25 µM; GI50 [47]: 13 µM; TGI [47]: > 25 µM; GI50 [48]: 8.85 µM; TGI [48]: > 25 µM; GI50 [49]: > 25 µM; TGI [49]: > 25 µM; GI50 [50]: 12.6 µM; TGI [50]: > 25 µM; GI50 [51]: > 22.5 µM; TGI [51]: > 25 µM; GI50 [52]: > 25 µM; TGI [52]: > 25 µM; GI50 [53]: 7.07 µM; TGI [53]: > 25 µM; GI50 [54]: 9.95 µM; TGI [54]: > 25 µM; GI50 [55]: > 25 µM; TGI [55]: > 25 µM; GI50 [56]: > 25 µM; TGI [56]: > 25 µM; GI50 [57]: > 16.4 µM; TGI [57]: > 25 µM; GI50 [58]: 7.65 µM; TGI [58]: > 25 µM
